Experimental data: patent US10233184B2, “7-substituted sulfonimidoylpurinone compounds and derivatives for the treatment and prophylaxis of virus infection” (Hoffmann-La Roche Inc., priority 2016, dated 2019)
Where two headings read alike, the source gives them in different places.

How the values were obtained:
[1] = Portal vein study: oral PK in PVC/CAC dual cannulated rat; type: in vivo; settings: prodrug 10 mg/kg oral, analyte prodrug
Description: Surgery was performed under pentobarbital/isoflurane anesthesia. Briefly, after disinfecting the abdominal area with betadine and 70% isopropyl alcohol, a small abdominal mid-line incision was made. The cecum was pulled out and mesenteric vein was identified and isolated for about 5 mm vessel. A loose ligature was placed proximally and distal end of the vein was ligated. Make a small incision (just enough to allow the insertion of the catheter) on isolated vein and insert the PU catheter towards liver for appropriate length. The catheter was secured in place by tying the loose ligature around the cannulated vessel. The cecum was replaced into abdominal cavity. A hole was made in the right abdominal wall to make the end of catheter pass freely. The catheter was secured by suture on the abdominal wall. The abdominal muscle incision was closed with suture. A small incision was made in the scapular area to serve as the exit site of the catheter. The catheter was subcutaneously tunneled and exteriorized through the scapular incision. A fixed suture was placed in the scapular region. The patency of the catheter was checked and then exteriorized from the subcutaneous space to the dorsal neck region. After gently wiping the area, the abdominal cavity was sutured. The left carotid artery was then cannulated by inserting a PESO catheter. Both the exteriorized catheters were tied firmly on the dorsal neck region and fixed. The animals was then allowed to recover in its cage and used for study at least 3 days after surgery. All catheters were flushed once daily with heparinized saline to maintain patency. Animals were fasted overnight (n=3) and administered vial oral gavage (10 mg/kg, 10 mL/kg). Blood samples (60 μL) were collected simultaneously from the portal and carotid artery catheters at 0.083, 0.25, 0.5, 1, 2, 4, 7, 24 h. All blood samples will be transferred into microcentrifuge tubes containing 2 μL of K2EDTA (0.5M) as anti-coagulant and placed on wet ice. Then blood samples will be processed for plasma by centrifugation at approximately 4° C., 3000 g within half an hour of collection. Plasma samples will be stored in polypropylene tubes, quick frozen over dry ice and kept at −70±10° C. until LC/MS/MS analysis. Pharmacokinetic parameters (mean±SD, n=3) of prodrugs and active forms in portal and carotid samples following oral administration of prodrugs (10 mg/kg) in portal vein cannulated rat were detected and analyzed.

LYSA solubility study = type: physicochemical; settings: aqueous solubility, 0.05M phosphate buffer pH 6.5
Method in brief: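 Samples from 10 mM DMSO stock were dried, redissolved in 0.05M phosphate buffer pH 6.5, stirred 1 h, shaken 2 h, left overnight and filtered. Filtrate and 1/10 dilution quantified by HPLC-UV; solubility in μg/mL, reported as greater-than when >80% of the maximum sample amount was in solution.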

human TLR7 = molecular target: T1, human TLR7 (Homo sapiens, UniProt Q9NYK1); assay: HEK293-Blue-hTLR-7 cells assay (SEAP reporter); type: cell-based
T1 sequence (Q9NYK1 27-1049): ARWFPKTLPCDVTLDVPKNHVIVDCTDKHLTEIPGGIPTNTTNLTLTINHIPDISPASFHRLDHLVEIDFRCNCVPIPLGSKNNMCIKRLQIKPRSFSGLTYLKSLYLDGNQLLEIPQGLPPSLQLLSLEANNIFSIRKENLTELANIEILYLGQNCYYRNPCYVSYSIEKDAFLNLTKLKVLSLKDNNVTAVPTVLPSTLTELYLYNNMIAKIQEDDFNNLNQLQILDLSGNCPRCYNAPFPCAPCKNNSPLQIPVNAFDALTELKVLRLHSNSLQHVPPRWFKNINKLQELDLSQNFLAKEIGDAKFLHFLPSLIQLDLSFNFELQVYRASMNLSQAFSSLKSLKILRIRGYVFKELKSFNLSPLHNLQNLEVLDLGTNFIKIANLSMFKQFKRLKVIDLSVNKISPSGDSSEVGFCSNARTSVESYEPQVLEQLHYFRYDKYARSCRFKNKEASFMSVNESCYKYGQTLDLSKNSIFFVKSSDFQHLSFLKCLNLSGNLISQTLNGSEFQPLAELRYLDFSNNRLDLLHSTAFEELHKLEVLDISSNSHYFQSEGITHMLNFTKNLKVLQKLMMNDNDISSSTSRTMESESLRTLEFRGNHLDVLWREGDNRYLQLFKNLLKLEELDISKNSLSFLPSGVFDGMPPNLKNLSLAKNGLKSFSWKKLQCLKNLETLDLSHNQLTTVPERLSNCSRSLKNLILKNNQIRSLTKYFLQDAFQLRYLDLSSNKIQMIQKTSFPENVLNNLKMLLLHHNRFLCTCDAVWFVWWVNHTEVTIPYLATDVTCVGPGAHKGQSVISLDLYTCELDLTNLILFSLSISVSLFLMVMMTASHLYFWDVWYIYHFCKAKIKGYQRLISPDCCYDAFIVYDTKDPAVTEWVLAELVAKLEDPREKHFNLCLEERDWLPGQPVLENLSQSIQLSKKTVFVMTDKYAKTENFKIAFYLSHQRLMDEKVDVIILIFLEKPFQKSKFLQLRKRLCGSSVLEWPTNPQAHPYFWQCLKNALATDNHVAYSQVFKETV
Method in brief: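 HEK293-Blue-hTLR7 cells with NF-κB/AP-1-driven SEAP reporter exposed to serially diluted compound (1% DMSO) for 20 hrs at 37° C. Supernatant SEAP measured with QUANTI-Blue after 2 hrs at 37° C, absorbance 620~655 nm; agonism expressed as EC50.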

[2] = Single dose PK study in male Wister-Han rats; type: in vivo; settings: male, Wister-Han, rat, plasma, po, 5 mg/kg, 5 mg/kg oral dosing of active form
[3] = phase Ib, patients with chronic hepatitis B; cited from earlier work

Row | AUC(0-t) ([1]; carotid artery plasma, read-out: AUC0-2 (nM · h), prodrug, Carotid sampling) | Cmax ([1]; carotid artery plasma, read-out: Cmax (nM), prodrug, Carotid sampling) | Tmax ([1]; carotid artery plasma, read-out: Tmax (h), prodrug, Carotid sampling) | AUC(0-t) ([1]; portal vein plasma, read-out: AUC0-2 (nM · h), prodrug, Portal sampling) | Cmax ([1]; portal vein plasma, read-out: Cmax (nM), prodrug, Portal sampling) | Tmax ([1]; portal vein plasma, read-out: Tmax (h), prodrug, Portal sampling) | LYSA of Prodrugs (LYSA solubility study) | Ratio (EC50(prodrug)/EC50(active form)) (human TLR7; EC50 of prodrug over EC50 of corresponding active form) | EC50 (human TLR7; HEK293-Blue-hTLR-7 cells, SEAP reporter, 20 hrs, prodrug, read-out: HEK293-hTLR-7 EC50 (Prodrug)) | AUC(0-t) [2] | Cmax [2] | concentration at 0.25 h ([2]; 0.25 h) | concentration at 0.5 h ([2]; 0.5 h) | concentration at 1 h ([2]; 1 h) | concentration at 2 h ([2]; 2 h) | concentration at 4 h ([2]; 4 h) | concentration at 8 h ([2]; 8 h) | SMILES | ISG15 mRNA induction [3] | safety and tolerability [3]
1 | 0.04 µM·h | 70 nM | 0.083 h | 0.266 µM·h | 670 nM | 0.083 h | 200 µg/mL | 314.0 | 27 µM | – | – | – | – | – | – | – | – | CCCN(C)C(=O)n1c(=O)n(Cc2ccccc2)c2nc(S(=N)(=O)CCC)nc(N)c21 (single isomer, unassigned) [Example 1-B] | – | –
2 | – | – | – | – | – | – | – | – | – | 0.316 µM·h | 164 nM | 56.3 nM | 33.2 nM | 83.4 nM | 136 nM | 16.7 nM | 9.49 nM | CCCCOc1nc(N)c2c(n1)N(Cc1cccc(CN3CCCC3)c1)CC(=O)N2 [GS9620, reference compound] | dose-dependent ISG15 mRNA induction | safe, well tolerated
